For 27 compounds, IC50 results are on record in patent US9216991B2 (Ares Trading S.A., priority 2012, dated 2015).

The target of this assay is T1, IRAK4 (Homo sapiens, UniProt Q9NWZ3).
T1 construct: His (N); TEV cleavage site (N)
T1 sequence (Q9NWZ3 1-460): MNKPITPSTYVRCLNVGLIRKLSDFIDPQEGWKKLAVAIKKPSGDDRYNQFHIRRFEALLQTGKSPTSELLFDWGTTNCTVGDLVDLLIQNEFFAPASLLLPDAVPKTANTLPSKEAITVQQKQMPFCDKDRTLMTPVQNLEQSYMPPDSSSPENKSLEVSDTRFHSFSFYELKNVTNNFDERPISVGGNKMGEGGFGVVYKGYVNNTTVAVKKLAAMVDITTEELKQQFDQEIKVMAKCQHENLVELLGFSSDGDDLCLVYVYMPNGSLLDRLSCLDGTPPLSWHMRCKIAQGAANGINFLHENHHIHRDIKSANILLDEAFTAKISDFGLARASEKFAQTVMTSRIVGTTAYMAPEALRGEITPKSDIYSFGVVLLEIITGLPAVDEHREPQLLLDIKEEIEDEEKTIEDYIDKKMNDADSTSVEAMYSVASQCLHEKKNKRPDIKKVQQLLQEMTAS
Briefly: IRAK4 Enzymatic Assay. The format is biochemical. As to conditions: His-TEV-IRAK4 20 ng/well, ATP 2 μM, STK1-biotin peptide 300 nM, 3 hours at 30° C., FlashPlate radioactivity. In a few lines:
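Radiometric FlashPlate readout: biotin-STK1 substrate (300 nM) captured on streptavidin after EDTA stop and washes. Reaction used His-TEV-IRAK4 (20 ng/well), 2 μM [^33P]-spiked ATP and compound (1 nM-20 μM), incubated 3 h at 30 °C in 50 mM HEPES pH 7.0, 10 mM MgCl2, 5 mM MnCl2, 2 mM DTT.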
For the compound `Cc1cc(-c2cccc(-c3ncc(-c4cnn(C5CCOCC5)c4)cn3)c2)ccn1` [Example 139, 2-[3-(2-Methyl-pyridin-4-yl)-phenyl]-5-[1-(tetrahydro-pyran-4-yl)-1H-pyrazol-4-yl]-pyrimidine], the IC50 lay within 0.1 to 1 µM. With `Cn1cc(-c2cccc(-c3ncc(-c4cn(C5CCOCC5)nc4C(=O)O)cn3)c2)cn1` [Example 140, 4-{2-[3-(1-Methyl-1H-pyrazol-4-yl)-phenyl]-pyrimidin-5-yl}-1-(tetrahydro-pyran-4-yl)-1H-pyrazole-3-carboxylic acid] the figure was 1 to 5 µM; with `Cn1cc(-c2cccc(-c3ncc(-c4cnn(C5COC5)c4)cn3)c2)cn1` [Example 141, 2-[3-(1-Methyl-1H-pyrazol-4-yl)-phenyl]-5-(1-oxetan-3-yl-1H-pyrazol-4-yl)-pyrimidine], 0.1 to 1 µM; with `CN1[C@@H]2CCC[C@H]1C[C@H](n1cc(-c3cnc(-c4cccc(-c5cnn(C)c5)c4)nc3)cn1)C2` [Example 142, Exo-9-Methyl-3-(4-{2-[3-(1-methyl-1H-pyrazol-4-yl)-phenyl]-pyrimidin-5-yl}-pyrazol-1-yl)-9-aza-bicyclo[3.3.1]nonane], 0.1 to 1 µM. With `CNC(=O)[C@H]1CC[C@H](n2cc(-c3cnc(-c4cccc(-c5cnn(C)c5)c4)nc3)cn2)CC1` [Example 143, Trans-4-(4-{2-[3-(1-Methyl-1H-pyrazol-4-yl)-phenyl]-pyrimidin-5-yl}-pyrazol-1-yl)-cyclohexanecarboxylic acid methylamide] the figure was below 0.1 µM. With `CNC(=O)c1nn(C)cc1-c1cnc(-c2cccc(-c3cnn(C)c3)c2)nc1` [Example 144, 1-Methyl-4-{2-[3-(1-methyl-1H-pyrazol-4-yl)-phenyl]-pyrimidin-5-yl}-1H-pyrazole-3-carboxylic acid methylamide] the figure was 1 to 5 µM; with `CN(C(=O)Cn1cc(-c2cnc(-c3cccc(-c4cnn(C)c4)c3)nc2)cn1)C1COC1` [Example 145, N-Methyl-2-(4-{2-[3-(1-methyl-1H-pyrazol-4-yl)-phenyl]-pyrimidin-5-yl}-pyrazol-1-yl)-N-oxetan-3-yl-acetamide], 0.1 to 1 µM; with `CC1COCCN1C(=O)Cn1cc(-c2cnc(-c3cccc(-c4cnn(C)c4)c3)nc2)cn1` (stereo not drawn) [Example 147, 1-(3-Methyl-morpholin-4-yl)-2-(4-{2-[3-(1-methyl-1H-pyrazol-4-yl)-phenyl]-pyrimidin-5-yl}-pyrazol-1-yl)-ethanone], 0.1 to 1 µM.

Consider `CN(C)C(=O)C(C)(C)n1cc(-c2cnc(-c3cccc(-c4cnn(C)c4)c3)nc2)cn1` [Example 149, N,N-Dimethyl-2-(4-{2-[3-(1-methyl-1H-pyrazol-4-yl)-phenyl]-pyrimidin-5-yl}-pyrazol-1-yl)-isobutyramide], for which the IC50 lay in the range of 0.1 to 1 µM. Under `Cn1cc(-c2cccc(-c3ncc(-c4cnn(C(C)(C)C(=O)N5CCOCC5)c4)cn3)c2)cn1` [Example 150, 2-Methyl-2-(4-{2-[3-(1-methyl-1H-pyrazol-4-yl)-phenyl]-pyrimidin-5-yl}-pyrazol-1-yl)-1-morpholin-4-yl-propan-1-one] stands 1 to 5 µM; under `OCc1cc(-c2cccc(-c3ncc(-c4cnn(C5CCOCC5)c4)cn3)c2)ccn1` [Example 151, [4-(3-{5-[1-(Tetrahydro-pyran-4-yl)-1H-pyrazol-4-yl]-pyrimidin-2-yl}-phenyl)-pyridin-2-yl]-methanol], 0.1 to 1 µM; under `COCCN(C)C(=O)[C@H]1CC[C@H](n2cc(-c3cnc(-c4cccc(-c5cnn(C)c5)c4)nc3)cn2)CC1` [Example 152, Trans-4-(4-{2-[3-(1-Methyl-1H-pyrazol-4-yl)-phenyl]-pyrimidin-5-yl}-pyrazol-1-yl)-cyclohexanecarboxylic acid (2-methoxy-ethyl)-methyl-amide], below 0.1 µM.

For `Cn1cc(-c2cccc(-c3ncc(-c4cn(C5CCOCC5)nc4C(=O)N4CC(O)C4)cn3)c2)cn1` [Example 153, (3-Hydroxy-azetidin-1-yl)-[4-{2-[3-(1-methyl-1H-pyrazol-4-yl)-phenyl]-pyrimidin-5-yl}-1-(tetrahydro-pyran-4-yl)-1H-pyrazol-3-yl]-methanone], the concentration for half-maximal inhibition (IC50) is 1 to 5 µM.

For `Cn1cc(-c2cccc(-c3ncc(-c4cn(C5CCOCC5)nc4C(=O)NCCO)cn3)c2)cn1` [Example 154, 4-{2-[3-(1-Methyl-1H-pyrazol-4-yl)-phenyl]-pyrimidin-5-yl}-1-(tetrahydro-pyran-4-yl)-1H-pyrazole-3-carboxylic acid (2-hydroxy-ethyl)-amide], the IC50 lay in the range of 1 to 5 µM. Under `Cn1cc(-c2cccc(-c3ncc(-c4cn(C)nc4CO)cn3)c2)cn1` [Example 155, (1-Methyl-4-{2-[3-(1-methyl-1H-pyrazol-4-yl)-phenyl]-pyrimidin-5-yl}-1H-pyrazol-3-yl)-methanol] stands 1 to 5 µM; under `Cn1cc(-c2cccc(-c3ncc(-c4cnn([C@H]5CC[C@@H](N)CC5)c4)cn3)c2)cn1` [Example 156, 4-(4-{2-[3-(1-Methyl-1H-pyrazol-4-yl)-phenyl]-pyrimidin-5-yl}-pyrazol-1-yl)-cyclohexylamine], 0.1 to 1 µM. Under `CNC(=O)C1CC(n2cc(-c3cnc(-c4cccc(-c5cnn(C)c5)c4)nc3)cn2)C1` (stereo not drawn) [Example 157, 3-(4-{2-[3-(1-Methyl-1H-pyrazol-4-yl)-phenyl]-pyrimidin-5-yl}-pyrazol-1-yl)-cyclobutanecarboxylic acid methylamide] stands 0.1 to 1 µM. `CN(C)C(=O)C1CC(n2cc(-c3cnc(-c4cccc(-c5cnn(C)c5)c4)nc3)cn2)C1` (stereo not drawn) [Example 158, 3-(4-{2-[3-(1-Methyl-1H-pyrazol-4-yl)-phenyl]-pyrimidin-5-yl}-pyrazol-1-yl)-cyclobutanecarboxylic acid dimethylamide]: the IC50 fell in the range of 0.1 to 1 µM. With `COCCNC(=O)[C@H]1CC[C@H](n2cc(-c3cnc(-c4cccc(-c5cnn(C)c5)c4)nc3)cn2)CC1` [Example 159, Trans-4-(4-{2-[3-(1-Methyl-1H-pyrazol-4-yl)-phenyl]-pyrimidin-5-yl}-pyrazol-1-yl)-cyclohexanecarboxylic acid (2-methoxy-ethyl)-amide] the figure was below 0.1 µM; with `CN1CCN(C(=O)[C@H]2CC[C@H](n3cc(-c4cnc(-c5cccc(-c6cnn(C)c6)c5)nc4)cn3)CC2)CC1` [Example 160, Trans-(4-Methyl-piperazin-1-yl)-[4-(4-{2-[3-(1-methyl-1H-pyrazol-4-yl)-phenyl]-pyrimidin-5-yl}-pyrazol-1-yl)-cyclohexyl]-methanone], below 0.1 µM.

`CC(=O)N[C@H]1CC[C@@H](n2cc(-c3cnc(-c4cccc(-c5cnn(C)c5)c4)nc3)cn2)CC1` [Example 161, Cis-N-[4-(4-{2-[3-(1-Methyl-1H-pyrazol-4-yl)-phenyl]-pyrimidin-5-yl}-pyrazol-1-yl)-cyclohexyl]-acetamide]: the IC50 is below 0.1 µM. Under `Cn1cc(-c2cccc(-c3ncc(-c4cnn([C@H]5CC[C@H](C(=O)N6CCOCC6)CC5)c4)cn3)c2)cn1` [Example 162, Trans-[4-(4-{2-[3-(1-Methyl-1H-pyrazol-4-yl)-phenyl]-pyrimidin-5-yl}-pyrazol-1-yl)-cyclohexyl]-morpholin-4-yl-methanone] stands below 0.1 µM. Under `CC(C)[C@H](CO)NC(=O)[C@H]1CC[C@H](n2cc(-c3cnc(-c4cccc(-c5cnn(C)c5)c4)nc3)cn2)CC1` [Example 163, Trans-4-(4-{2-[3-(1-Methyl-1H-pyrazol-4-yl)-phenyl]-pyrimidin-5-yl}-pyrazol-1-yl)-cyclohexanecarboxylic acid ((R)-1-hydroxymethyl-2-methyl-propyl)-amide] stands 0.1 to 1 µM; under `COCCC(=O)N[C@H]1CC[C@@H](n2cc(-c3cnc(-c4cccc(-c5cnn(C)c5)c4)nc3)cn2)CC1` [Example 166, Cis-3-Methoxy-N-[4-(4-{2-[3-(1-methyl-1H-pyrazol-4-yl)-phenyl]-pyrimidin-5-yl}-pyrazol-1-yl)-cyclohexyl]-propionamide], 0.1 to 1 µM.

`Cn1cc(-c2cccc(-c3ncc(-c4cnn(C5CCN([C@H]6CCOC[C@H]6F)CC5)c4)cn3)c2)cn1` [Example 167, 5-{1-[1-((3S,4S)-3-Fluoro-tetrahydro-pyran-4-yl)-piperidin-4-yl]-1H-pyrazol-4-yl}-2-[3-(1-methyl-1H-pyrazol-4-yl)-phenyl]-pyrimidine]: the IC50 lay within 0.1 to 1 µM. With `CO[C@@H]1CCN(C(=O)[C@H]2CC[C@H](n3cc(-c4cnc(-c5cccc(-c6cnn(C)c6)c5)nc4)cn3)CC2)C1` [Example 168, ((R)-3-Methoxy-pyrrolidin-1-yl)-trans-[4-(4-{2-[3-(1-methyl-1H-pyrazol-4-yl)-phenyl]-pyrimidin-5-yl}-pyrazol-1-yl)-cyclohexyl]-methanone] the figure was below 0.1 µM. With `CNC(=O)C(CCO)n1cc(-c2cnc(-c3cccc(-c4cnn(C)c4)c3)nc2)cn1` (stereo not drawn) [Example 169, 4-Hydroxy-N-methyl-2-(4-{2-[3-(1-methyl-1H-pyrazol-4-yl)-phenyl]-pyrimidin-5-yl}-pyrazol-1-yl)-butyramide] the figure was 1 to 5 µM.
